The values that follow are results of earlier work, collected in patent US4513029A, “Sea water antifouling method” (priority 1982, dated 1985).

SMILES strings stand for the structures.

In the data set the test system is mice. Conditions: oral administration to mice (after 24 hours).
Turning to `[Cu].[O]=[Cu]` [copper suboxide], the LD50 entry is “not more than 1,000 mg/kg”. Take `CC(=O)[O-].c1cc[c]([Sn+]([c]2ccccc2)[c]2ccccc2)cc1` [tripenyltin acetate]: the LD50 result is listed as “not more than 1,000 mg/kg”.

With `[Cl][Sn]([c]1ccccc1)([c]1ccccc1)[c]1ccccc1` [triphenyltin chloride], the LD50 entry is recorded as “not more than 1,000 mg/kg”. Regarding `[OH][Sn]([c]1ccccc1)([c]1ccccc1)[c]1ccccc1` [triphenyltin hydroxide], the LD50 result was “not more than 1,000 mg/kg”.
